Key:
[1] = Selectivity ratio of IC50 for human A2780T cells to IC50 for human A2780S
A2780S [2] = assay: Induction of cell cycle arrest in human A2780S cells assessed as accumulation of cells at G2/M phase at 300 nM measured after 24 hrs by propidium iodide staining based analysis (reference value: 18.43%); type: functional
A2780S [3] = assay: Antitumor activity against human A2780S cells xenografted in mouse model assessed as tumor growth inhibition at 10 mg/kg, iv administered every two days for 12 days relative to control; type: functional; conditions: 288 h, time 12 day, read-out: TGI
A2780/Taxol = assay: Antitumor activity against human A2780T cells xenografted in mouse model assessed as tumor growth inhibition at 20 mg/kg, iv administered every two days for 18 days relative to control; type: functional; conditions: 432 h, time 18 day, read-out: TGI

For `COc1cccc(-c2cc(NCc3ccc4[nH]ccc4c3)nc(N)n2)c1`, which “Ratio IC50” value [1] is on record?
Its value is 0.89.

And the Activity (A2780S [2])?
Its Activity is 82.11%.

What about the inhibition in vivo at 10 mg/kg (A2780S [3]) of the same compound?
Its inhibition in vivo at 10 mg/kg is 45.3%.

What about the inhibition in vivo at 20 mg/kg (A2780/Taxol) of the same compound?
The inhibition in vivo at 20 mg/kg was 68.2%.
